target: T1, recombinant human mPGES-1 (Homo sapiens, UniProt O14684); assay: mPGES-1 inhibition test (microsomes, PGH2 substrate, HTRF detection of PGE2); type: biochemical; details: not given
T1 construct: made in house; host or cells: Rosetta E. coli (microsomal/membrane fraction)
T1 sequence (O14684 1-152): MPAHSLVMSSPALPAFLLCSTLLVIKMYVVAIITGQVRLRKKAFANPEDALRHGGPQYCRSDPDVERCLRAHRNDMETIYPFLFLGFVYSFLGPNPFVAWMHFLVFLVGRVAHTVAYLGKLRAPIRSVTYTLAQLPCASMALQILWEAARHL
Summary of the method: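 PGE2 formed from PGH2 in one minute by E. coli-expressed microsomal enzyme (pH 7.4, 2.5 mM GSH) was measured by competitive HTRF against a synthetic PGE2 standard curve. Compounds were preincubated 25 min at room temperature.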

SMILES | inhibition at 10 µM
COc1cc2[nH]c(Nc3c(Cl)cccc3Cl)nc2cc1C(=O)NCC(F)(F)C(F)(F)C(F)(F)F [Example 632, N-(2,2,3,3,4,4,4-heptafluoro-butyl)-2-(2,6-dichlorophenylamino)-6-methoxy-1H-benzimidazole-5-carboxamide] | 99%

same assay, conditions: inhibition of mPGES-1 at 1 μM (marked in cell)

SMILES | inhibition at 1 µM
COc1cc2[nH]c(Nc3c(Cl)ccc(C)c3F)nc2cc1C(=O)NC1CCC(C)(C)CC1 [Example 626] | 92%
COc1cc2[nH]c(Nc3c(Cl)ccc(C)c3F)nc2cc1C(=O)NC1CCCCC1 [Example 628, 2-(6-Chloro-2-fluoro-3-methyl-phenylamino)-6-methoxy-N-cyclohexyl-1H-benzimidazole-5-carboxamide] | 98%
COc1cc2c(cc1C(=O)Nc1ccc(Br)cc1)nc(Nc1cc(C)ccc1C(F)(F)F)n2C [Example 641, 2-(5-Methyl-2-trifluoromethyl-phenylamino)-N-(4-bromphenyl)-6-methoxy-1-methyl-1H-benzimidazol-5-carboxamide] | 97%
COc1cc2c(cc1C(=O)Nc1ccc(Br)cc1)nc(Nc1cc(F)ccc1C(F)(F)F)n2C [Example 642, 2-(5-Fluoro-2-trifluoromethyl-phenylamino)-N-(4-bromphenyl)-6-methoxy-1-methyl-1H-benzimidazol-5-carboxamide] | 100%
CCOc1cc2[nH]c(Nc3c(Cl)ccc(Cl)c3F)nc2cc1C(=O)NC1CCC2(CC1)CC2 [Example 646, 2-(3,6-Dichloro-2-fluoro-phenylamino)-6-ethoxy-N-(spiro[2.5]oct-6-yl)-1H-benzimidazole-5-carboxamide] | 99%

Results, then the molecule that gave them:

inhibition at 1 µM | SMILES
96% | COc1cc2[nH]c(Nc3c(Cl)ccc(C)c3F)nc2cc1C(=O)N[C@H]1CC[C@H](C(F)(F)F)CC1 [Example 622, 2-(6-Chloro-2-fluoro-3-methyl-phenylamino)-6-methoxy-N-(4-trans-trifluoromethyl-cyclohex-1-yl)-1H-benzimidazole-5-carboxamide]
93% | Cc1ccc(Cl)c(Nc2nc3cc(C(=O)NC4CCCCC4)c(F)cc3n2C)c1F [Example 623, 2-(6-Chloro-2-fluoro-3-methyl-phenylamino)-6-fluoro-N-cyclohexyl-1-methyl-1H-benzimidazole-5-carboxamide]
100% | CC(C)Oc1cc2c(cc1C(=O)NC1CCCCC1)nc(Nc1c(Cl)ccc(Cl)c1F)n2C [Example 624, 2-(3,6-Dichloro-2-fluoro-phenylamino)-6-isopropoxy-N-cyclohexyl-1-methyl-1H-benzimidazole-5-carboxamide]
99% | CC(C)Oc1cc2c(cc1C(=O)NC1CCC(C)(C)CC1)nc(Nc1c(Cl)ccc(Cl)c1F)n2C [Example 625, 2-(3,6-Dichloro-2-fluoro-phenylamino)-6-isopropoxy-N-(4,4-dimethyl-cyclohex-1-yl)-1-methyl-1H-benzimidazole-5-carboxamide]
94% | Cc1ccc(Cl)c(Nc2nc3cc(C(=O)NC4CCC(C)(C)CC4)c(F)cc3n2C)c1F [Example 627, 2-(6-Chloro-2-fluoro-3-methyl-phenylamino)-6-fluoro-N-(4,4-dimethyl-cyclohex-1-yl)-1-methyl-1H-benzimidazole-5-carboxamide]
99% | Cc1ccc(Cl)c(Nc2nc3cc(C(=O)N[C@H]4CC[C@H](C(F)(F)F)CC4)c(F)cc3n2C)c1F [Example 629, 2-(6-Chloro-2-fluoro-3-methyl-phenylamino)-6-fluoro-N-(trans-4-trifluoromethyl-cyclohex-1-yl)-1-methyl-1H-benzimidazole-5-carboxamide]
100% | COc1cc2c(cc1C(=O)N[C@H]1CC[C@H](C(F)(F)F)CC1)nc(Nc1c(Cl)ccc(Cl)c1F)n2C [Example 643, 2-(3,6-Dichloro-2-fluoro-phenylamino)-6-methoxy-N-(trans-4-trifluoromethyl-cyclohex-1-yl)-1-methyl-1H-benzimidazole-5-carboxamide]
96% | CC(C)Oc1cc2c(cc1C(=O)NC1CCC(C(F)(F)F)CC1)nc(Nc1c(Cl)ccc(Cl)c1F)n2C (stereo not drawn) [Example 644, 2-(3,6-Dichloro-2-fluoro-phenylamino)-6-isopropoxy-N-(4-trans-trifluoromethyl-cyclohex-1-yl)-1-methyl-1H-benzimidazole-5-carboxamide]
100% | COc1cc2c(cc1C(=O)NC1CCC3(CC1)CC3)nc(Nc1c(Cl)ccc(Cl)c1F)n2C [Example 645, 2-(3,6-Dichloro-2-fluoro-phenylamino)-6-methoxy-N-(spiro[2.5]oct-6-yl)-1-methyl-1H-benzimidazole-5-carboxamide]
97% | COc1cc2c(cc1C(=O)N[C@H]1CC[C@H](C(F)(F)F)CC1)nc(Nc1c(Cl)ccc(C)c1F)n2C [Example 647, 2-(6-Chloro-2-fluoro-3-methyl-phenylamino)-6-methoxy-N-(trans-4-trifluoromethyl-cyclohex-1-yl)-1-methyl-1H-benzimidazole-5-carboxamide]

same assay, conditions: inhibition of mPGES-1 at 10 μM

SMILES | inhibition at 10 µM
COc1cc2[nH]c(Nc3c(Cl)ccc(Cl)c3F)nc2cc1C(=O)NC1CCC2(CC1)CC2 [Example 613, 2-(3,6-Dichloro-2-fluoro-phenylamino)-N-(spiro[2.5]oct-6-yl)-6-methoxy-1H-benzimidazole-5-carboxamide] | 91%
CC(C)Oc1cc2[nH]c(Nc3c(Cl)ccc(Cl)c3F)nc2cc1C(=O)Nc1cccc(Cl)c1 [Example 614, 2-(3,6-Dichloro-2-fluoro-phenylamino)-N-(3-chloro-phenyl)-6-isopropoxy-1H-benzimidazole-5-carboxamide] | 100%
COc1cc2[nH]c(Nc3c(Cl)cccc3Cl)nc2cc1C(=O)NCc1ncccc1Cl [Example 630] | 100%
COc1cc2c(cc1C(=O)NCc1ncccc1Cl)nc(Nc1c(Cl)cccc1Cl)n2C [Example 631] | 100%
COc1cc2[nH]c(Nc3c(Cl)cccc3Cl)nc2cc1C(=O)Nc1ccc(C(F)(F)F)cn1 [Example 633, 2-(2,6-Dichlorophenylamino)-N-(5-trifluoromethyl-pyridin-2-yl)-6-methoxy-1H-benzimidazole-5-carboxamide] | 99%
COc1cc2c(cc1C(=O)Nc1cc(Cl)c(C)cn1)nc(Nc1c(Cl)cccc1Cl)n2C [Example 634, 2-(2,6-Dichlorophenylamino)-N-(4-chloro-5-methyl-pyridin-2-yl)-6-methoxy-1-methyl-1H-benzimidazole-5-carboxamide] | 97%
COc1cc2[nH]c(Nc3c(Cl)ccc(CC#N)c3Cl)nc2cc1C(=O)Nc1ccc(Br)cc1 [Example 639, 2-(2,6-Dichloro-3-cyanomethyl-phenylamino)-N-(4-bromphenyl)-6-methoxy-1H-benzimidazol-5-carboxamide] | 99%
COc1cc2c(cc1C(=O)Nc1ccc(Br)cc1)nc(Nc1cc(C(F)(F)F)ccc1C(F)(F)F)n2C [Example 640, 2-(2,5-Di-(trifluoromethyl)-phenylamino)-N-(4-bromphenyl)-6-methoxy-1-methyl-1H-benzimidazol-5-carboxamide] | 100%

Further lines, results first:

inhibition at 10 µM | SMILES
99% | COc1cc2[nH]c(Nc3c(Cl)ccc(Cl)c3F)nc2cc1C(=O)NC1CCCCC1 [Example 612, 2-(3,6-Dichloro-2-fluoro-phenylamino)-N-cyclohexyl-6-methoxy-1H-benzimidazole-5-carboxamide]
96% | CC(C)Oc1cc2[nH]c(Nc3c(Cl)ccc(Cl)c3F)nc2cc1C(=O)NC1CCC2(CC1)CC2 [Example 615, 2-(3,6-Dichloro-2-fluoro-phenylamino)-6-isopropoxy-N-(spiro[2.5]oct-6-yl)-1H-benzimidazole-5-carboxamide]
100% | COc1cc2[nH]c(Nc3c(Cl)ccc(Cl)c3F)nc2cc1C(=O)NC1CCC(C)(C)CC1 [Example 616, 2-(3,6-Dichloro-2-fluoro-phenylamino)-N-(4,4-dimethyl-cyclohex-1-yl)-6-methoxy-1H-benzimidazole-5-carboxamide]
100% | COc1cc2[nH]c(Nc3c(Cl)ccc(Cl)c3F)nc2cc1C(=O)N[C@H]1CC[C@H](C(F)(F)F)CC1 [Example 617, 2-(3,6-Dichloro-2-fluoro-phenylamino)-6-methoxy-N-(4-trans-trifluoromethyl-cyclohex-1-yl)-1H-benzimidazole-5-carboxamide]
91% | CC(C)Oc1cc2[nH]c(Nc3c(Cl)ccc(Cl)c3F)nc2cc1C(=O)NC1CCC(C)(C)CC1 [Example 618, 2-(3,6-Dichloro-2-fluoro-phenylamino)-6-isopropoxy-N-(4,4-dimethyl-cyclohex-1-yl)-1H-benzimidazole-5-carboxamide]
94% | COc1cc2c(cc1C(=O)NC1CCCCC1)nc(Nc1c(Cl)ccc(Cl)c1F)n2C [Example 619, 2-(3,6-Dichloro-2-fluoro-phenylamino)-6-methoxy-N-cyclohexyl-1-methyl-1H-benzimidazole-5-carboxamide]
100% | CC(C)Oc1cc2[nH]c(Nc3c(Cl)ccc(Cl)c3F)nc2cc1C(=O)NC1CCC(C(F)(F)F)CC1 (stereo not drawn) [Example 620, 2-(3,6-Dichloro-2-fluoro-phenylamino)-6-isopropoxy-N-(4-trans-trifluoromethyl-cyclohex-1-yl)-1H-benzimidazole-5-carboxamide]
99% | COc1cc2c(cc1C(=O)NC1CCC(C)(C)CC1)nc(Nc1c(Cl)ccc(Cl)c1F)n2C [Example 621, 2-(3,6-Dichloro-2-fluoro-phenylamino)-6-methoxy-N-(4,4-dimethyl-cyclohex-1-yl)-1-methyl-1H-benzimidazole-5-carboxamide]

From patent publication US8916599B2, “1H-benz imidazole-5-carboxamides as anti-inflammatory agents” (Orexo AB, priority 2008, dated 2014)
